This is an account of results in the NIST ThermoML archive (doi:10.1016/j.tca.2016.06.023).

A short description of data set [1]: xn = mol fraction of the nth substance listed. Particulars: 81.5 kPa, Liquid, Vibrating tube method.
The nature of data set [2]: refractive index (Na D-line) (dimensionless); xn = mol fraction of the nth substance listed. Particulars: 81.5 kPa, Liquid, Standard Abbe refractometry.

± gives the expanded uncertainty stated by the source.

The mass density is the mass of a sample divided by its volume. By refractive index is commonly meant a measure of how strongly the sample bends light. `Clc1ccccc1` [chlorobenzene] + Brc1ccccc1: the mass density in data set [1] (293.15 K, x1 = 1) is 1106.49 ± 10 kg/m3; in data set [1] (303.15 K, x1 = 1) it was 1095.71 ± 10 kg/m3; in data set [1] (313.15 K, x1 = 1) it was 1084.86 ± 10 kg/m3; in data set [1] (323.15 K, x1 = 1) it was 1073.96 ± 10 kg/m3; in data set [1] (333.15 K, x1 = 1), 1063.01 ± 10 kg/m3. The refractive index is given as 1.52455 ± 0.01 in data set [2] (293.15 K, x1 = 1); 1.51902 ± 0.01 in data set [2] (303.15 K, x1 = 1); 1.51346 ± 0.01 in data set [2] (313.15 K, x1 = 1); 1.50781 ± 0.01 in data set [2] (323.15 K, x1 = 1); 1.50223 ± 0.01 in data set [2] (333.15 K, x1 = 1).

In the case of `O=[N+]([O-])c1ccccc1` [nitrobenzene] + Brc1ccccc1, the mass density in data set [1] (293.15 K, x2 = 0) is on record as 1203.05 ± 10 kg/m3; in data set [1] (303.15 K, x2 = 0), 1193.15 ± 10 kg/m3; in data set [1] (313.15 K, x2 = 0), 1183.21 ± 10 kg/m3; in data set [1] (323.15 K, x2 = 0) it was 1173.27 ± 10 kg/m3; in data set [1] (333.15 K, x2 = 0), 1163.32 ± 10 kg/m3. For the same molecule, the refractive index in data set [2] (293.15 K, x2 = 0) amounted to 1.55241 ± 0.01; in data set [2] (303.15 K, x2 = 0), 1.54763 ± 0.01; in data set [2] (313.15 K, x2 = 0), 1.54288 ± 0.01; in data set [2] (323.15 K, x2 = 0), 1.53795 ± 0.01; in data set [2] (333.15 K, x2 = 0), 1.53289 ± 0.01.

Regarding `O=[N+]([O-])c1ccccc1` [nitrobenzene] + Clc1ccccc1, the mass density in data set [1] (293.15 K, x2 = 0) is 1203.05 ± 10 kg/m3; in data set [1] (303.15 K, x2 = 0), 1193.15 ± 10 kg/m3; in data set [1] (313.15 K, x2 = 0), 1183.21 ± 10 kg/m3; in data set [1] (323.15 K, x2 = 0), 1173.27 ± 10 kg/m3; in data set [1] (333.15 K, x2 = 0) it was 1163.32 ± 10 kg/m3. The refractive index in data set [2] (293.15 K, x2 = 0) was 1.55241 ± 0.01; in data set [2] (303.15 K, x2 = 0) it was 1.54763 ± 0.01; in data set [2] (313.15 K, x2 = 0), 1.54288 ± 0.01; in data set [2] (323.15 K, x2 = 0), 1.53795 ± 0.01; in data set [2] (333.15 K, x2 = 0), 1.53289 ± 0.01.
